Legend:
Glucocorticoid receptor [1] = biological target: T1, Glucocorticoid receptor (Homo sapiens, UniProt P04150); test: Binding affinity to glucocorticoid receptor expressed in baculovirus-infected insect cells using tetramethylrhodamine labeled Dexamethasone by fluorescence polarization microplate assay
T1 sequence (P04150 whole entry): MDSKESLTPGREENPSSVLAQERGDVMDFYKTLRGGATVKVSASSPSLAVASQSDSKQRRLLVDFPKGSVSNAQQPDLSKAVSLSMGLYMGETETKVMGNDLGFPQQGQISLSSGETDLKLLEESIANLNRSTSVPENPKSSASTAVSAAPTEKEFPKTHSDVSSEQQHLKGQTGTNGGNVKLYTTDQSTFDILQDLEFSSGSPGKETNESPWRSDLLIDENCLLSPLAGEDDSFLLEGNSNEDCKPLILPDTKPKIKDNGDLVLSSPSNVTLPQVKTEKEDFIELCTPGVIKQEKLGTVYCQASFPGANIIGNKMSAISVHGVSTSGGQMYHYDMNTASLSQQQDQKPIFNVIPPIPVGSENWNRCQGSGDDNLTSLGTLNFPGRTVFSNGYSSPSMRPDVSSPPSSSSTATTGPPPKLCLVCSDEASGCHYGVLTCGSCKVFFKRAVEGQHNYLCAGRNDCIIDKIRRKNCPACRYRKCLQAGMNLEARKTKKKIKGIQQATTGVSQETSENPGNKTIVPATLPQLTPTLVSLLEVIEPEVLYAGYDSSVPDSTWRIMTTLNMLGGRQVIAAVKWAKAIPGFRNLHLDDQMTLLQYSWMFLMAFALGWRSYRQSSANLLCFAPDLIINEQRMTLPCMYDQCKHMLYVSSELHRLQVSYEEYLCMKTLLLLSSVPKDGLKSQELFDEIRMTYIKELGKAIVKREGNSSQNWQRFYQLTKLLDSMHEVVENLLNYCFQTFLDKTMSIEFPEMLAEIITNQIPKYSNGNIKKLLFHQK

Glucocorticoid receptor [2] = biological target: T1, Glucocorticoid receptor; test: Transrepression activity at glucocorticoid receptor in HFF assessed as inhibition of IL-1-induced IL-6 production after 18 to 24 hrs by ELISA; format: cell-based
[3] = biological target: T2, Mineralocorticoid receptor (Homo sapiens, UniProt P08235); test: Binding affinity to mineralocorticoid receptor expressed in baculovirus-infected insect cells using tetramethylrhodamine labeled Dexamethasone by fluorescence polarization microplate assay
T2 sequence (P08235 whole entry): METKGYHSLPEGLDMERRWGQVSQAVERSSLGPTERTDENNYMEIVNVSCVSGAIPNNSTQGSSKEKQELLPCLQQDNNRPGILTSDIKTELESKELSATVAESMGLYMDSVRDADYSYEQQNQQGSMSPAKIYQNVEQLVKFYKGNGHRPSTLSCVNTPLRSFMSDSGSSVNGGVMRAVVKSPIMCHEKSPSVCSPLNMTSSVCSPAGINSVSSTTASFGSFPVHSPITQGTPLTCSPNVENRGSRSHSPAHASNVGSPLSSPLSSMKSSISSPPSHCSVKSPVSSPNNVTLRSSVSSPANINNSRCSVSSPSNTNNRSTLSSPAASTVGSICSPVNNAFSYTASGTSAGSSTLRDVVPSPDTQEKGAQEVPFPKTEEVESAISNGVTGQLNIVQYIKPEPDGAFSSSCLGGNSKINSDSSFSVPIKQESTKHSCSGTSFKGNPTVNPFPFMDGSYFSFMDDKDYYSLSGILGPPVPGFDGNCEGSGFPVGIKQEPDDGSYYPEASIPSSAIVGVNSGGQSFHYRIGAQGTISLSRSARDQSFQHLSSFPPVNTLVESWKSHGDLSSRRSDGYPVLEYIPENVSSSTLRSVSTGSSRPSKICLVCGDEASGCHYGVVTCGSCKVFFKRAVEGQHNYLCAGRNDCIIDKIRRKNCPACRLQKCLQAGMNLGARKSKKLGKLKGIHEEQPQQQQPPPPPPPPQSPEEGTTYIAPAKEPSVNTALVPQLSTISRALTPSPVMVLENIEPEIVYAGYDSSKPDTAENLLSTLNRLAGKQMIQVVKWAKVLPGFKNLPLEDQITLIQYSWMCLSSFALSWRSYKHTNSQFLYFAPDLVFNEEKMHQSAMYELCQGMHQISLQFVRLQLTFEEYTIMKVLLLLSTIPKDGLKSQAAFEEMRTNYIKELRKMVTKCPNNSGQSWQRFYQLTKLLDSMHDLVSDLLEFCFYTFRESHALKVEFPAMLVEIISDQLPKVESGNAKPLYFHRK

Progesterone receptor = biological target: T3, Progesterone receptor (Homo sapiens, UniProt P06401); test: Binding affinity to progesterone receptor expressed in baculovirus-infected insect cells using tetramethylrhodamine labeled RU-486 by fluorescence polarization microplate assay
T3 sequence (P06401 whole entry): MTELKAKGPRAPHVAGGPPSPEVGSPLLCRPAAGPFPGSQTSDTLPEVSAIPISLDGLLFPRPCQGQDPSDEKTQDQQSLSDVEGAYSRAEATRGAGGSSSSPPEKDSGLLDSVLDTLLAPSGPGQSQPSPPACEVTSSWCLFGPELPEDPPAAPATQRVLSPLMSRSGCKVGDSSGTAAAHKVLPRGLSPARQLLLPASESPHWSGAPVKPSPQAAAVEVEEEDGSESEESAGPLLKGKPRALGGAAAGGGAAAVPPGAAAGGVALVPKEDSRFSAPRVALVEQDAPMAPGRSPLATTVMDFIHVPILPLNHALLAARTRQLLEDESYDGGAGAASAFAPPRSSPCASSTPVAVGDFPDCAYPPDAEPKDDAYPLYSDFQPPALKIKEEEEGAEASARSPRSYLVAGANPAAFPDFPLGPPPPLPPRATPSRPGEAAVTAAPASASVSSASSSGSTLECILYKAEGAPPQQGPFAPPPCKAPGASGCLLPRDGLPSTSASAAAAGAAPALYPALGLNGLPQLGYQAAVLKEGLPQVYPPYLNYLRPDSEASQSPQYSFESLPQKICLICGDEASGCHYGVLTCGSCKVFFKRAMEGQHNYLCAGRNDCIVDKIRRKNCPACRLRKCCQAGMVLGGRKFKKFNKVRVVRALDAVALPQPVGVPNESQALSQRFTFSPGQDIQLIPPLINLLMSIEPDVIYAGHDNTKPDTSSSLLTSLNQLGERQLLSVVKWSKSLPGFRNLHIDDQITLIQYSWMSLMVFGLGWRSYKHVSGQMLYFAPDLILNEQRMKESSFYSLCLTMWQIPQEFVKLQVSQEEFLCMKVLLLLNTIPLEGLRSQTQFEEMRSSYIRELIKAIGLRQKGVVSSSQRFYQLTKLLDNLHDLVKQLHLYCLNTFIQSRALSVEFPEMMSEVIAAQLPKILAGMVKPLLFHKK

Glucocorticoid receptor [4] = biological target: T1, Glucocorticoid receptor; test: Transactivation activity at glucocorticoid receptor in HFF assessed as induction of aromatase activity after 18 to 24 hrs by ELISA; format: cell-based
Glucocorticoid receptor [5] = biological target: T1, Glucocorticoid receptor; test: Transactivation activity at glucocorticoid receptor in human HeLa cells transfected with luciferase gene linked to MMTV promoter by luciferase assay; format: cell-based

Row | SMILES | IC50 (Glucocorticoid receptor [1]) | IC50 (Glucocorticoid receptor [2]) | IC50 [3] | IC50 (Progesterone receptor) | EC50 (Glucocorticoid receptor [4]) | IC50 (Glucocorticoid receptor [5])
1 | COc1ccc(F)cc1C(C)(C)CC(O)(Cc1cc2ccncc2o1)C(F)(F)F (stereo unspecified) | 22 nM | > 2000 nM | 1050 nM | > 2000 nM |  | 
2 | COc1ccc(F)cc1C(C)(C)CC(O)(Cn1ccc2ncccc21)C(F)(F)F (stereo unspecified) | 2 nM | 2.8 nM | 48 nM | 200 nM |  | 
3 | COc1ccc(-c2cccnc2)cc1C(C)(C)CC(O)(Cc1cc2ccncc2[nH]1)C(F)(F)F (stereo unspecified) | 8 nM | 30 nM | 390 nM | > 2000 nM | > 2000 nM | 
4 | CC(C)(CC(O)(Cc1cc2ccncc2[nH]1)C(F)(F)F)c1cc(-c2ccccc2)ccc1O (stereo unspecified) | 11 nM | 15 nM | 160 nM | 1300 nM | 45 nM | 47 nM
5 | CC(C)(CC(O)(Cc1cc2ccncc2[nH]1)C(F)(F)F)c1cc(-c2cccnc2)ccc1O (stereo unspecified) | 6.6 nM | 23 nM | 230 nM | > 2000 nM |  | > 2000 nM
6 | COc1ccc(F)cc1C(C)(C)CC(O)(Cn1ccc2ccncc21)C(F)(F)F (stereo unspecified) | 1400 nM |  | > 2000 nM | > 2000 nM |  | 
7 | COc1ccc(F)cc1C(C)(C)CC(O)(Cc1cc2ccncc2[nH]1)C(F)(F)F (stereo unspecified) | 4.4 nM | 9.8 nM | 580 nM | > 2000 nM |  | 
8 | CC(C)(CC(O)(Cc1cc2ccncc2[nH]1)C(F)(F)F)c1cccc(F)c1 (stereo unspecified) | 23 nM | 99 nM | > 2000 nM | 8 nM | > 2000 nM | 
9 | CC(C)(CC(O)(Cc1cc2ccncc2[nH]1)C(F)(F)F)c1cc(F)cc2c1OCC2 (stereo unspecified) | 2.3 nM | 9.3 nM | 280 nM | 450 nM |  | > 2000 nM
10 | COc1ccc(F)cc1C(C)(C)C[C@@](O)(Cc1cc2cnccc2[nH]1)C(F)(F)F | 1.4 nM | 2 nM | 58 nM | 600 nM | 35 nM | 22 nM
11 | COc1ccc(F)cc1C(C)(C)CC(O)(Cc1cc2cnccc2[nH]1)C(F)(F)F (stereo unspecified) | 7.3 nM | 8.2 nM | 320 nM | > 2000 nM |  | 
12 | CC(C)(C[C@@](O)(Cc1cc2cnccc2[nH]1)C(F)(F)F)c1cc(F)ccc1O | 4.7 nM | 3 nM | 220 nM | 1900 nM | 45 nM | 56 nM
13 | CC(C)(CC(O)(Cc1cc2ccncc2[nH]1)C(F)(F)F)c1ccccc1 (stereo unspecified) | 9.3 nM | 31 nM | 810 nM | 190 nM | > 2000 nM | > 2000 nM
14 | C[C@@H]1C[C@H]2[C@@H]3CCC4=CC(=O)C=C[C@]4(C)[C@@]3(F)[C@@H](O)C[C@]2(C)[C@@]1(O)C(=O)CO [DEXAMETHASONE] |  |  |  | > 2000 nM |  | 
15 | COc1ccc(-c2ccccc2)cc1C(C)(C)CC(O)(Cc1cc2ccncc2[nH]1)C(F)(F)F (stereo unspecified) | 12 nM | 40 nM | 480 nM | 1200 nM | 69 nM | 
16 | COc1ccc(F)cc1C(C)(C)CC(O)(Cc1cc2ccccn2n1)C(F)(F)F (stereo unspecified) | 690 nM | > 2000 nM | > 2000 nM | > 2000 nM |  | 
17 | CC(C)(CC(O)(Cc1cc2ccncc2[nH]1)C(F)(F)F)c1cccc2c1OCC2 (stereo unspecified) | 4.5 nM | 15 nM | 780 nM | 130 nM | 30 nM | > 2000 nM
18 | COc1ccc(F)cc1C(C)(C)CC(O)(Cc1cc2cccnc2[nH]1)C(F)(F)F (stereo unspecified) | 21 nM | > 2000 nM | 910 nM | > 2000 nM |  | 
19 | CC(C)(CC(O)(Cc1cc2ccncc2[nH]1)C(F)(F)F)c1cc(-c2cncnc2)ccc1O (stereo unspecified) | 19 nM | 21 nM | 1700 nM | > 2000 nM |  | 
20 | COc1ccc(-c2cncnc2)cc1C(C)(C)CC(O)(Cc1cc2ccncc2[nH]1)C(F)(F)F (stereo unspecified) | 27 nM | 50 nM | > 2000 nM | > 2000 nM |  | 
21 | COc1ccc(F)cc1C(C)(C)CC(O)(Cc1cc2cc[n+]([O-])cc2[nH]1)C(F)(F)F (stereo unspecified) | 860 nM |  | > 2000 nM | > 2000 nM |  | 
22 | COc1ccc(F)cc1C(C)(C)C[C@](O)(Cc1cc2ccncc2[nH]1)C(F)(F)F | 1700 nM | 430 nM | > 2000 nM | > 2000 nM |  | 
23 | CC(C)(CC(O)(Cc1cc2ccncc2[nH]1)C(F)(F)F)c1cc(Cl)cc2c1OCC2 (stereo unspecified) | 7 nM | 17 nM | 540 nM | 1210 nM | 120 nM | > 2000 nM
24 | COc1ccc(F)cc1C(C)(C)CC(O)(Cc1cc2ccncc2s1)C(F)(F)F (stereo unspecified) | 7.1 nM | 35 nM | 220 nM | 1300 nM |  | 
25 | COc1ccc(F)cc1C(C)(C)CC(O)(Cc1cc2ncccc2[nH]1)C(F)(F)F (stereo unspecified) | 23 nM | 120 nM | > 2000 nM | > 2000 nM |  | 
26 | COc1ccc(F)cc1C(C)(C)CC(O)(Cc1cc2ccccc2[nH]1)C(F)(F)F (stereo unspecified) | 21 nM | 6.6 nM | 380 nM | 250 nM |  | 

Reference: ChEMBL document CHEMBL1250518, “Nonsteroidal dissociated glucocorticoid agonists containing azaindoles as steroid A-ring mimetics” (J Med Chem, 2010)
